Results reported in ChEMBL document CHEMBL3785043, “Exploring the purine core of 3'-C-ethynyladenosine (EAdo) in search of novel nucleoside therapeutics” (Bioorg Med Chem Lett, 2016).
Calls of active or inactive are those of the source. No cut-off for these calls is given here.

Experiments:
Influenza A virus [1] = test: Antiviral activity against Influenza virus A H3N2 at 100 uM; type: functional, organism-based
Influenza B virus = test: Antiviral activity against Influenza virus B at 100 uM; type: functional, organism-based
[2] = system: Mammalian orthoreovirus 1; test: Antiviral activity against Reovirus 1 at 100 uM; type: functional
Punta Toro virus = test: Antiviral activity against Punta Toro virus at 100 uM; type: functional, organism-based
[3] = system: Human immunodeficiency virus 1; test: Antiviral activity against HIV1 3B infected in human MT4 cells at 100 uM preincubated with cells for 30 mins followed by HIV inoculation measured after 4 to 5 days by microscopic analysis; type: functional, organism-based
[4] = system: Human immunodeficiency virus 1; test: Antiviral activity against HIV 1 NL4-3 infected in human MT4 cells at 100 uM preincubated with cells for 30 mins followed by HIV inoculation measured after 4 to 5 days by microscopic analysis; type: functional, organism-based
[5] = system: Human immunodeficiency virus 2; test: Antiviral activity against HIV2 ROD infected in human MT4 cells at 100 uM preincubated with cells for 30 mins followed by HIV inoculation measured after 4 to 5 days by microscopic analysis; type: functional, organism-based; settings: ISOLATE ROD
L1210 = test: Cytostatic activity against mouse L1210 cells after 48 hrs by Coulter counter method; type: functional, cell-based; settings: L1210, 48 h
CCRF-CEM = test: Cytostatic activity against human CEM cells after 72 hrs by Coulter counter method; type: functional, cell-based
Sindbis virus = test: Antiviral activity against Sindbis virus at 100 uM; type: functional, organism-based
HeLa = test: Cytostatic activity against human HeLa cells after 72 hrs by Coulter counter method; type: functional, cell-based
Human alphaherpesvirus 1 [6] = test: Antiviral activity against Aciclovir-resistant thymidine kinase-deficient HSV-1 KOS at 100 uM; type: functional, organism-based
Human betaherpesvirus 5 [7] = test: Antiviral activity against Human cytomegalovirus AD169 at 100 uM; type: functional, organism-based
Human betaherpesvirus 5 [8] = test: Antiviral activity against Human cytomegalovirus Davis at 100 uM; type: functional, organism-based
[9] = system: Vesicular stomatitis virus; test: Antiviral activity against VSV at 100 uM; type: functional, organism-based
Human alphaherpesvirus 1 [10] = test: Antiviral activity against HSV-1 KOS at 100 uM; type: functional, organism-based
Human alphaherpesvirus 2 [11] = test: Antiviral activity against HSV-2 lyons at 100 uM; type: functional, organism-based
Human alphaherpesvirus 2 [12] = test: Antiviral activity against HSV-2 G at 100 uM; type: functional, organism-based; settings: strain G
Human adenovirus 2 = test: Antiviral activity against Adenovirus 2 at 100 uM; type: functional, organism-based
[13] = system: Respiratory syncytial virus; test: Antiviral activity against Respiratory syncytial virus long at 100 uM; type: functional, organism-based
Coxsackievirus B4 = test: Antiviral activity against Coxsackie B4 virus at 100 uM; type: functional, organism-based
Human respirovirus 3 = test: Antiviral activity against parainfluenza virus 3 at 100 uM; type: functional, organism-based
Influenza A virus [14] = test: Antiviral activity against Influenza virus A H1N1 at 100 uM; type: functional, organism-based
Vaccinia virus = test: Antiviral activity against Vaccinia virus Lederle; type: functional, organism-based; settings: Orthopoxvirus vaccinia
[15] = biological target: Adenosine receptor A3 (Homo sapiens) (UniProt P0DMS8); test: Agonist activity at adenosine A3 receptor (unknown origin) assessed as inhibition of forskolin-stimulated adenylyl cyclase activity at 10 uM; type: functional
Sequence of Adenosine receptor A3 (Homo sapiens) (P0DMS8 whole entry): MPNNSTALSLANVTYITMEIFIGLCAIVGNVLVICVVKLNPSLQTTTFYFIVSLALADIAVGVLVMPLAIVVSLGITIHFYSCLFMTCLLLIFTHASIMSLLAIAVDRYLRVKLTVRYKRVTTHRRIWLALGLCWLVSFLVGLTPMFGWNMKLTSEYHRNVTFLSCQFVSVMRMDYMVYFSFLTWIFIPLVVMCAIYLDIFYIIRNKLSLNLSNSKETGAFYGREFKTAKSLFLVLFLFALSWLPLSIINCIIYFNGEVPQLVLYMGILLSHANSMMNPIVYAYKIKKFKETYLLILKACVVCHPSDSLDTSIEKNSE

Human alphaherpesvirus 3 [16] = test: Antiviral activity against VZV Oka; type: functional, organism-based; settings: Human alphaherpesvirus 3, strain Oka vaccine
Human alphaherpesvirus 3 [17] = test: Antiviral activity against thymidine kinase deficient VZV 07-1; type: functional, organism-based; settings: Human alphaherpesvirus 3, 07-1

Row | Compound | Activity (Influenza A virus [1]) | Activity (Influenza B virus) | Activity [2] | Activity (Punta Toro virus) | Activity [3] | Activity [4] | Activity [5] | IC50 (L1210) [µM] | IC50 (CCRF-CEM) [µM] | Activity (Sindbis virus) | IC50 (HeLa) [µM] | Activity (Human alphaherpesvirus 1 [6]) | Activity (Human betaherpesvirus 5 [7]) | Activity (Human betaherpesvirus 5 [8]) | Activity [9] | Activity (Human alphaherpesvirus 1 [10]) | Activity (Human alphaherpesvirus 2 [11]) | Activity (Human alphaherpesvirus 2 [12]) | Activity (Human adenovirus 2) | Activity [13] | also measured
1 | C#C[C@@]1(O)[C@@H](CO)O[C@@H](n2cnc3c(N)nc(N)nc32)[C@@H]1O | inactive | inactive | inactive | inactive | inactive | inactive | inactive | 193 | ≥ 250 | inactive | 123 | inactive | inactive | inactive | inactive | inactive | inactive | inactive | inactive | inactive | Activity (Coxsackievirus B4): inactive; Activity (Human respirovirus 3): inactive; Activity (Influenza A virus [14]): inactive
2 | C#C[C@@]1(O)[C@@H](CO)O[C@@H](n2cnc3c(OC)nc(N)nc32)[C@@H]1O | inactive | inactive | inactive | inactive | inactive | inactive | inactive | > 250 | > 250 | inactive | > 250 | inactive | inactive | inactive | inactive | inactive | inactive | inactive | inactive | inactive | Activity (Coxsackievirus B4): inactive; Activity (Human respirovirus 3): inactive; Activity (Influenza A virus [14]): inactive
3 | C#C[C@@]1(O)[C@@H](CO)O[C@@H](n2cnc3c(N)nc(Cl)nc32)[C@@H]1O | inactive | inactive | inactive | inactive | inactive | inactive | inactive | 167 | > 250 | inactive | > 250 | inactive | inactive | inactive | inactive | inactive | inactive | inactive | inactive | inactive | Activity (Coxsackievirus B4): inactive; Activity (Human respirovirus 3): inactive; Activity (Influenza A virus [14]): inactive
4 | C#C[C@@]1(O)[C@@H](CO)O[C@@H](n2cnc3c(N)ncnc32)[C@@H]1O | inactive | inactive | inactive | inactive | inactive | inactive | inactive | 0.73 | 0.61 | inactive | 0.29 | inactive | inactive | inactive | inactive | inactive | inactive | inactive | inactive | inactive | EC50 (Vaccinia virus): 0.35 µM; Activity (Coxsackievirus B4): inactive; Activity (Human respirovirus 3): inactive; Activity (Influenza A virus [14]): inactive
5 | C#C[C@@]1(O)[C@@H](CO)O[C@@H](n2cnc3c(OC)nc(OC)nc32)[C@@H]1O | inactive | inactive | inactive | inactive | inactive | inactive | inactive | > 250 | > 250 | inactive | > 250 | inactive | inactive | inactive | inactive | inactive | inactive | inactive | inactive | inactive | Activity (Coxsackievirus B4): inactive; Activity (Human respirovirus 3): inactive; Activity (Influenza A virus [14]): inactive
6 | C#C[C@@]1(O)[C@@H](CO)O[C@@H](n2cnc3c(NCc4cccc(Cl)c4)nc(Cl)nc32)[C@@H]1O | inactive | inactive | inactive | inactive | inactive | inactive | inactive | 50 | 22 | inactive | 43 | inactive | inactive | inactive | inactive | inactive | inactive | inactive | inactive | inactive | inhibition [15]: 48%; EC50 (Human alphaherpesvirus 3 [16]): 4.68 µM; EC50 (Human alphaherpesvirus 3 [17]): 4.68 µM; Activity (Coxsackievirus B4): inactive; Activity (Human respirovirus 3): inactive; Activity (Influenza A virus [14]): inactive
7 | C#C[C@@]1(O)[C@@H](CO)O[C@@H](n2cnc3c(OC)nc(Cl)nc32)[C@@H]1O | inactive | inactive | inactive | inactive | inactive | inactive | inactive | > 250 | 210 | inactive | 175 | inactive | inactive | inactive | inactive | inactive | inactive | inactive | inactive | inactive | Activity (Coxsackievirus B4): inactive; Activity (Human respirovirus 3): inactive; Activity (Influenza A virus [14]): inactive
8 | C#C[C@@]1(O)[C@@H](CO)O[C@@H](n2cnc3c(NC4CCCC4)nc(Cl)nc32)[C@@H]1O | inactive | inactive | inactive | inactive | inactive | inactive | inactive | 170 | 104 | inactive | 150 | inactive | inactive | inactive | inactive | inactive | inactive | inactive | inactive | inactive | inhibition [15]: 70%; Activity (Coxsackievirus B4): inactive; Activity (Human respirovirus 3): inactive; Activity (Influenza A virus [14]): inactive
9 | C#C[C@@]1(O)[C@@H](CO)O[C@@H](n2cnc3c(Cl)nc(N)nc32)[C@@H]1O | inactive | inactive | inactive | inactive | inactive | inactive | inactive | > 250 | > 250 | inactive | > 250 | inactive | inactive | inactive | inactive | inactive | inactive | inactive | inactive | inactive | EC50 (Vaccinia virus): 51 µM; Activity (Coxsackievirus B4): inactive; Activity (Human respirovirus 3): inactive; Activity (Influenza A virus [14]): inactive
